In patent publication US6962712B2, “Cosmetic or dermatological composition comprising of a combination of an elastase inhibitor of the N-acylaminoamide family and at least one antifungal agent or at least one antibacterial agent” (L'Oreal, priority 2001, dated 2005):
One block for each compound: values may come before it.

How the values were obtained:
[1] = tested on: surviving human skins irradiated by UVA; experiment: surviving human skins irradiated by UVA (8 J/cm2), morphometry of elastin fibres and collagen (Example 6); details: UVA 8 J/cm2 once, 5 μl of compound at 0.2% in ethanol every two days, 7 days at 37° C.
Method: The activity of the compound of Example 2 was evaluated on irradiated surviving human skins irradiated by UVA (8 J/cm2).
The test is performed in the following manner:
Fragments of normal human skin derived from four different donors are deposited in inserts placed in culture wells. Culture medium supplemented with antibiotics is added to the bottom of the wells. Passage by slow diffusion occurs between the two compartments through the intermediary of a porous membrane (pore size: 12 μm).
The culture medium is renewed every three days.
Every two days 5 μl of the test compound previously dissolved at 0.2% in ethanol are added to the skin fragments.
The skins are maintained in survival for 7 days at 37° C.
The skins are irradiated once only at 8 J/cm2 (Vilbert-Lourmat RMX-3W lamp).
The elastin fibres are stained blue with (+) catechol and quantified morphometrically by computer-assisted image analysis. The mean percentage dermal surface area occupied by the elastin fibres was thus evaluated.

[2] = biological target: T1, human leukocyte elastase (HLE) (Homo sapiens, UniProt P08246); experiment: in vitro anti-elastase activity against human leukocyte elastase, substrate Me-OSAAPV-p-NA, spectrophotometry; type: biochemical; details: compound concentration 0.1%; HLE 40 milliunits per ml; 37° C., 60 minutes
T1 sequence (P08246 30-267): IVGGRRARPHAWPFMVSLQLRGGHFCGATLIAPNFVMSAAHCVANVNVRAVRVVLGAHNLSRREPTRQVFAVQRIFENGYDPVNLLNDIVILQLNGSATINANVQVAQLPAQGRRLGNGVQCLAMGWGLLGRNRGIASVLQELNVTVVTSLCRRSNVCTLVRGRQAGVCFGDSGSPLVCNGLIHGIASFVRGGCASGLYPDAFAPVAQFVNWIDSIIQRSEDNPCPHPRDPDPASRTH
Method: The anti-elastase activity of compounds according to the invention was determined in vitro against human leukocyte elastase (HLE)
The test was performed in the following manner:
A substrate Me-OSAAPV-p-NA (methyl-O-succinate alanine alanine proline valine-p-nitroanilide) to which is added the HLE (40 milliunits per ml) and 0.1% of the test compound is incubated at 37° C. for 60 minutes.
The % of inhibition of the elastase activity tested is then determined by spectrophotometry.

Staphylococcus epidermis [3] = experiment: ex vivo bacteria/skin adhesion model, 3H-thymidine labelled bacteria on intact human skin (Example 9); type: cell-based; details: for Adherent bacteria: control (PBS) = 100%
Method: The activity of resveratrol on the adhesion of micro-organisms to human skin or human mucous membranes was measured.
The activity of resveratrol (3,4′,5-trihydroxystilbene) on the adhesion of micro-organisms to human skin or human mucous membranes was tested in a bacteria/skin adhesion model, such as described below.
This ex vivo bacteria/skin adhesion model is based on the use of explants of intact human skin mounted in a sandwich between a bottomless 96 wells plate and a Plexiglas support.
(§1) This ex vivo bacteria/skin adhesion model is based on the use of intact human skin mounted in a sandwich between a bottomless 96 wells plate and a Plexiglas support. The impervious individualized wells make it possible to test in a standard format the effect of resveratrol on the adhesion of Staphylococcus epidermis (resident bacteria) to the surface of the skin. The bacteria are radiolabelled in the growth phase by the incorporation of 3H-thymidine. This bacterial flora is then deposited in each well. After incubation for one hour at 20° C., the wells are washed three times with phosphate buffered saline (PBS) in order to remove the free bacteria. The acacia honey is then added at 5 and 10% and incubation allowed to proceed for 1 hour at 20° C. At the end of this incubation the content of each well is recovered and counted in scintillation fluid (desorbed bacteria). The wells are then washed with a chaotropic solution which leads to the elution of the adherent bacteria. The washing solutions are also counted in scintillation fluid (adherent bacteria). A positive control (Fucogel® acid (poly-[(α-1,3)-Fuc-(α-1,3)-Gal-(α-1,3)-galacturonic]) acid is included in the study as reference.

Staphylococcus epidermis [4] = experiment: ex vivo bacteria/skin adhesion model, 3H-thymidine labelled bacteria on intact human skin (Example 8); type: cell-based; details: test product at 10%, 1 hour at 20° C., control (PBS) = 100%
Method: The activity of the honey on the adhesion of micro-organisms to the skin or to human mucous membranes was measured.
as §1, with “of acacia honey” for “of resveratrol”, “bacteria). The” for “bacteria). A”, “positive and negative controls” for “positive control”, “acid and Bioecolia® (Oligo-[α-1,4)-Gluc-(α-1,2)-Fruc-(α-1,6)-Gluc]) described in the publication of Wolf F. et al. (edition of 19th IFSCC Congress, Sydney, 1996) are” for “acid is”, “as references.” for “as reference.”

[5] = Staphylococcus, read-out: % of inhibition of adhesion of the bacteria

Compound: CC(=O)N(c1cccc(C(F)(F)F)c1)C(C(=O)NCC(=O)O)C(C)C (centres unmarked) [Compound A, {2-[acetyl-(3-trifluoromethyl-phenyl)-amino]-3-methyl-butyrylamino}acetic acid]
- Morphometric analysis of elastin fibres (superficial dermis) ([1]; untreated 6.75%, UVA alone 3.9%): 6.8%
- Morphometric analysis of collagen (superficial dermis) ([1]; untreated 87%, UVA alone 81%): 92%

Compound: CCOP(=O)(CC(=O)N(Cc1ccccc1)C(C(=O)NCCOC(C)=O)C(C)C)OCC (centres unmarked) [Compound B, (2-{benzyl-[(diethoxy-phosphoryl)-acetyl]-amino}-3-methyl-butyryl-amino)ethyl acetate]
- % inhibition of elastase activity tested [2]: 17%

- % inhibition of elastase activity tested [2]: 13%
Compound: CC(=O)OCCNC(=O)C(C(C)C)N(Cc1ccccc1)C(C)=O (centres unmarked) [Compound D, [2-(acetyl-benzyl-amino)-3-methyl-butyrylamino]ethyl acetate]

Compound: Oc1ccc(C=Cc2cc(O)cc(O)c2)cc1 [resveratrol, 3,4′,5-trihydroxystilbene]
- Adherent bacteria (Staphylococcus epidermis [3]; 0.1 μM): 71%
- Adherent bacteria (Staphylococcus epidermis [3]; 10 μM): 64%
- inhibition at 0.1 µM (Staphylococcus epidermis [3]; [5]): 29%
- inhibition at 10 µM (Staphylococcus epidermis [3]; [5]): 36%

Compound: Oligo-[α-1,4)-Gluc-(α-1,2)-Fruc-(α-1,6)-Gluc] [Bloé´colia ®]
- Adherent bacteria (Staphylococcus epidermis [4]): 76%
- Desorbed bacteria (Staphylococcus epidermis [4]): 89%
- Adherent bacteria (Staphylococcus epidermis [4]; listed as Bioecolia®): no significant effect on adhesion

Compound: poly-[(α-1,3)-Fuc-(α-1,3)-Gal-(α-1,3)-galacturonic]) acid [Fucogel ®]
- Adherent bacteria (Staphylococcus epidermis [3]; test product at 10%): 42%
- Adherent bacteria (Staphylococcus epidermis [4]): 12%
- Desorbed bacteria (Staphylococcus epidermis [4]): 257%
